Test results as given in patent US20250171465A1, “AKT INHIBITORS” (Stablix, Inc., priority 2023, published 2025).
Like-named read-outs stand apart in the source and are kept apart here.

Key:
Assay type in all cases: cell-based
[1] = system: KU1919.1; assay: Cell Titer Glo (CTG) proliferation assay, KU1919; details: KU1919.1 cells, 72.0 hrs., read-out: AVE CTG Proliferation KU1919.1 72.0 hrs.
Description: (§1) Seed cells in 40 μL of cell culture media into each well of 384-well cell culture plate, spin them at room temperature at 1,000 RPM for 1 minute and then transfer the plates into 37° C. 5% CO2 incubator overnight. Next day, treat cells with 40 nL of diluted compound and return to incubator. After compound treatment for 3 days, Add 30 μL of CellTiter-Glo reagent (Promega) into each well to be detected. Then place the plates at room temperature for 30 min followed by reading on EnVision. Inhibition activity calculated as % DMSO=100×(LumSample-Lum low control)/(Lum high control-Lum low control) where high control is from cells treated with 0.1% DMSO and Low control obtained from PBS only. Use XLFit (equation 201) to calculate IC50 (A+ ((B−A)/(1[…]((x/C)^D)))) where A: Bottom, B: Top, C: IC50, D: Slope.

[2] = system: MDAMB468.1; assay: Cell Titer Glo (CTG) proliferation assay, MDA-MB-468; details: MDAMB468.1 cells, 72.0 hrs., read-out: AVE CTG Proliferation MDAMB468.1 72.0 hrs.
Description: as §1

[3] = system: MDAMB231.1; assay: Cell Titer Glo (CTG) proliferation assay, MDA-MB-231; details: MDAMB231.1 cells, 72 hrs., read-out: AVE CTG Proliferation MDAMB231.1 72 hrs.
Description: as §1

Structure (SMILES)	IC50 ([1]; Homo sapiens, KU-19-19)	IC50 ([2]; Homo sapiens, MDA-MB-468)	IC50 ([3]; Homo sapiens, MDA-MB-231)	IC50 [1]	IC50 [2]	IC50 [3]
CC1(C(=O)N2CCCC(c3cccc(C(=O)N[C@@H](C(=O)N4CCC(OC5CCN(CC[C@H](NC(=O)C6(N)CCN(c7ncnc8[nH]ccc78)CC6)c6ccc(Cl)cc6)CC5)CC4)C4CCCCC4)c3F)C2)CC1 (stereo partly shown) [Compound I-282]	1 to 5 µM	1 to 5 µM	1 to 5 µM	–	–	–
C[C@@H]1C[C@@H](O)c2ncnc(N3CCN(C(=O)C(CN4CCC(CN5CCN(C(=O)[C@H](NC(=O)c6cccc([C@@H]7CCCN(C(=O)C8CC8)C7)c6F)C6CCCCC6)CC5)CC4)c4ccc(Cl)cc4)CC3)c21 (stereo partly shown) [Compound I-278]	0.5 to 1 µM	1 to 5 µM	1 to 5 µM	–	–	–
C[C@@H]1C[C@@H](O)c2ncnc(N3CCN(C(=O)[C@H](CNCCNC(=O)CN4CCC(CN5CCN(C(=O)c6cccc(C7CCCN(C(=O)CNC8CC8)C7)c6)CC5)CC4)c4ccc(Cl)cc4)CC3)c21 (stereo partly shown) [Compound I-206]	> 10 µM	> 10 µM	> 10 µM	–	–	–
NC1(C(=O)N[C@@H](CCN2CCN(C(=O)CN3CCC(OC4CCN(C(=O)[C@H](NC(=O)c5cccc(C6CCCN(C(=O)CNC7CC7)C6)c5)C5CCCCC5)CC4)CC3)CC2)c2ccc(Cl)cc2)CCN(c2ncnc3[nH]ccc23)CC1 (stereo partly shown) [Compound I-259]	1 to 5 µM	1 to 5 µM	1 to 5 µM	–	–	–
NC1(C(=O)N[C@@H](CCN2CCC(OC3CCN(C(=O)[C@H](NC(=O)c4cccc(C5CCCN(C(=O)CNCc6ccc(F)cc6F)C5)c4F)C4CCCCC4)CC3)CC2)c2ccc(Cl)cc2)CCN(c2ncnc3[nH]ccc23)CC1 (stereo partly shown) [Compound I-279]	0.5 to 1 µM	1 to 5 µM	1 to 5 µM	–	–	–
CC(C)NC[C@@H](C(=O)N1CCN(c2ncnc3c2[C@H](C)C[C@H]3O)CC1)c1ccc(Cl)cc1 [GDC-0068, Ipatasertib, reference compound]	> 10 µM	> 10 µM	> 10 µM	–	–	–
C[C@@H]1C[C@@H](O)c2ncnc(N3CCN(C(=O)[C@H](CNCCNC(=O)CN4CCC(CN5CCN(C(=O)c6cccc(C7CCCN(C(=O)CNCc8ccc(F)cc8F)C7)c6)CC5)CC4)c4ccc(Cl)cc4)CC3)c21 (stereo partly shown) [Compound I-207]	> 10 µM	> 10 µM	> 10 µM	–	–	–
CCc1cccc(-c2cnc(C(=O)N3CCN(CC45CCC(NCC(=O)NCCNC[C@@H](C(=O)N6CCN(c7cccc8c7[C@H](C)C[C@H]8O)CC6)c6ccc(Cl)cc6)(CC4)CO5)CC3)c(NC(=O)OC(C)(C)C)c2)c1 [Compound I-305]	1 to 5 µM	1 to 5 µM	1 to 5 µM	–	–	–
NC1(C(=O)N[C@@H](CCN2CCN(C(=O)CN3CCC(OC4CCN(C(=O)[C@H](NC(=O)c5cc(C6CN(C(=O)C7CC7)C6)ccc5F)C5CCCCC5)CC4)CC3)CC2)c2ccc(Cl)cc2)CCN(c2ncnc3[nH]ccc23)CC1 [Compound I-227]	1 to 5 µM	1 to 5 µM	1 to 5 µM	–	–	–
CC(C)(C)OC(=O)N1CCC(OC2CCN(CC(=O)N3CCN(CC[C@H](NC(=O)C4(N)CCN(c5ncnc6[nH]ccc56)CC4)c4ccc(Cl)cc4)CC3)CC2)CC1 [Compound I-315]	1 to 5 µM	1 to 5 µM	> 10 µM	–	–	–
NC1(C(=O)N[C@@H](CCN2CCC(OC3CCN(C(=O)c4cccc(C5CCCN(C(=O)CNC6CC6)C5)c4)CC3)CC2)c2ccc(Cl)cc2)CCN(c2ncnc3[nH]ccc23)CC1 (stereo partly shown) [Compound I-252]	5 to 10 µM	5 to 10 µM	> 10 µM	–	–	–
NC1(C(=O)N[C@@H](CCN2CCC(OC3CCN(C(=O)c4c(F)cc(-c5ccccc5)cc4F)CC3)CC2)c2ccc(Cl)cc2)CCN(c2ncnc3[nH]ccc23)CC1 [Compound I-281]	1 to 5 µM	1 to 5 µM	< 0.5 µM	–	–	–
CCc1cccc(-c2cnc(C(=O)N3CCN(CC4CCN(CC(=O)NCCNC[C@@H](C(=O)N5CCN(c6ncnc7c6[C@H](C)C[C@H]7O)CC5)c5ccc(Cl)cc5)CC4)CC3)c(NC(=O)OC(C)(C)C)c2)c1 [Compound I-306]	1 to 5 µM	1 to 5 µM	1 to 5 µM	–	–	–
NC1(C(=O)N[C@@H](CCN2CCN(C(=O)CN3CCC(OC4CCN(C(=O)[C@H](NC(=O)c5cccc(C6CN(C(=O)C7CC7)C6)c5)C5CCCCC5)CC4)CC3)CC2)c2ccc(Cl)cc2)CCN(c2ncnc3[nH]ccc23)CC1 [Compound I-240]	1 to 5 µM	1 to 5 µM	1 to 5 µM	–	–	–
C[C@@H]1C[C@@H](O)c2ncnc(N3CCN(C(=O)C(CN4CCC(CN5CCN(C(=O)[C@H](NC(=O)c6cccc([C@H]7CCCN(C(=O)CNC8CC8)C7)c6)C6CCCCC6)CC5)CC4)c4ccc(Cl)cc4)CC3)c21 (stereo partly shown) [Compound I-211]	0.5 to 1 µM	1 to 5 µM	1 to 5 µM	–	–	–
CCc1cccc(-c2cnc(C(=O)N3CCC(OC4CCN(CC(=O)NCCNC[C@@H](C(=O)N5CCN(c6ncnc7c6[C@H](C)C[C@H]7O)CC5)c5ccc(Cl)cc5)CC4)CC3)c(NC(C)=O)c2)c1 [Compound I-196]	1 to 5 µM	5 to 10 µM	5 to 10 µM	–	–	–
NC1(C(=O)N[C@@H](CCN2CCN(C(=O)CN3CCC(OC4CCN(C(=O)[C@H](NC(=O)c5cccc(C6CN(C(=O)CNC7CC7)C6)c5)C5CCCCC5)CC4)CC3)CC2)c2ccc(Cl)cc2)CCN(c2ncnc3[nH]ccc23)CC1 [Compound I-241]	1 to 5 µM	1 to 5 µM	5 to 10 µM	–	–	–
CCc1cccc(-c2cc(F)c(C(=O)N3CCC(OC4CCN(CC(=O)NCCNC[C@@H](C(=O)N5CCN(c6ncnc7c6[C@H](C)C[C@H]7O)CC5)c5ccc(Cl)cc5)CC4)CC3)c(F)c2)c1 [Compound I-261]	1 to 5 µM	1 to 5 µM	1 to 5 µM	–	–	–
NC1(C(=O)N[C@@H](CCO)c2ccc(Cl)cc2)CCN(c2nc[nH]c3nccc2-3)CC1 [AZD-5363, Capivasertib, reference compound]	–	–	–	> 10 µM	> 10 µM	> 10 µM
CCc1cccc(-c2cnc(C(=O)NCCOCCNCC[C@H](NC(=O)C3(N)CCN(c4ncnc5[nH]ccc45)CC3)c3ccc(Cl)cc3)c(NC(=O)OC(C)(C)C)c2)c1 [Compound I-301]	1 to 5 µM	1 to 5 µM	–	–	–	–
C[C@@H]1C[C@@H](O)c2ncnc(N3CCN(C(=O)[C@H](CNC4CCN(CC5CCN(C(=O)[C@H](NC(=O)c6cccc(C7CCCN(C(=O)C8CC8)C7)c6)C6CCCCC6)CC5)CC4)c4ccc(Cl)cc4)CC3)c21 (stereo partly shown) [Compound I-214]	1 to 5 µM	1 to 5 µM	–	–	–	–
CCc1cccc(-c2cnc(C(=O)N3CCC(OC4CCN(CC(=O)NCCNC[C@@H](C(=O)N5CCN(c6ncnc7c6[C@H](C)C[C@H]7O)CC5)c5ccc(Cl)cc5)CC4)CC3)c(NC(=O)CNCc3ccncn3)c2)c1 [Compound I-167]	> 10 µM	> 10 µM	–	–	–	–
CCc1cccc(-c2cnc(C(=O)NCCOCCNCC[C@H](NC(=O)C3(N)CCN(c4ncnc5[nH]ccc45)CC3)c3ccc(Cl)cc3)c(NC(C)=O)c2)c1 [Compound I-184]	5 to 10 µM	> 10 µM	–	–	–	–
CC(C)N(CCNC(=O)CN1CCC(CN2CCN(C(=O)[C@H](NC(=O)c3cccc(C4CCCN(C(=O)CNCc5ccc(F)cc5F)C4)c3)C3CCCCC3)CC2)CC1)C[C@@H](C(=O)N1CCN(c2ncnc3c2[C@H](C)C[C@H]3O)CC1)c1ccc(Cl)cc1 (stereo partly shown) [Compound I-200]	1 to 5 µM	1 to 5 µM	–	–	–	–
CCc1cccc(-c2cnc(C(=O)N3CCN(CC45CCC(NCC(=O)NCCNC[C@@H](C(=O)N6CCN(c7ncnc8c7[C@H](C)C[C@H]8O)CC6)c6ccc(Cl)cc6)(CC4)CO5)CC3)c(NC(=O)CN3CCOCC3)c2)c1 [Compound I-175]	1 to 5 µM	1 to 5 µM	–	–	–	–
CCc1cccc(-c2cnc(C(=O)N3CCN(CC45CCC(NCC(=O)NCCNC[C@@H](C(=O)N6CCN(c7ncnc8c7[C@H](C)C[C@H]8O)CC6)c6ccc(Cl)cc6)(CC4)CO5)CC3)c(N)c2)c1 [Compound I-195]	> 10 µM	> 10 µM	–	–	–	–
CCOc1cc(OC)ccc1CNCC(=O)N1CCCC(c2cccc(C(=O)N[C@@H](C(=O)N3CCN(CC4CCN(CC(=O)NCCN(C[C@@H](C(=O)N5CCN(c6nncc7c6[C@H](C)C[C@H]7O)CC5)c5ccc(Cl)cc5)C(C)C)CC4)CC3)C3CCCCC3)c2)C1 (stereo partly shown) [Compound I-171]	0.5 to 1 µM	1 to 5 µM	–	–	–	–
C[C@@H]1C[C@@H](O)c2ncnc(N3CCN(C(=O)[C@H](CNCCNC(=O)CN4CCC(CN5CCN(C(=O)[C@H](NC(=O)c6cccc(C7CCCN(C(=O)CNC8CC8)C7)c6)C6CCCCC6)CC5)CC4)c4ccc(Cl)cc4)CC3)c21 (stereo partly shown) [Compound I-205]	5 to 10 µM	> 10 µM	–	–	–	–
CCc1cccc(-c2cnc(C(=O)N3CCN(CC45CCC(NCC(=O)NCCNC[C@@H](C(=O)N6CCN(c7ncnc8c7[C@H](C)C[C@H]8O)CC6)c6ccc(Cl)cc6)(CC4)CO5)CC3)c(NC(C)=O)c2)c1 [Compound I-197]	5 to 10 µM	1 to 5 µM	–	–	–	–
NC1(C(=O)N[C@@H](CCN2CCN(C(=O)CN3CCC(OC4CCN(C(=O)c5cccc(C6CCCN(C(=O)CNCc7ccc(F)cc7F)C6)c5)CC4)CC3)CC2)c2ccc(Cl)cc2)CCN(c2ncnc3[nH]ccc23)CC1 (stereo partly shown) [Compound I-256]	5 to 10 µM	5 to 10 µM	–	–	–	–
